Assay results published in patent US8735387B2, “Oxazolopyrimidines as Edg-1 receptor agonists” (Sanofi, priority 2008, dated 2014).

Each compound was assayed against T1, human Edg-1 receptor (Homo sapiens, UniProt P21453) (assay: GTP-γ-S assay using human Edg-1 receptors (scintillation proximity assay, membrane preparation from CHO Flp-In cell line)). Settings: example compound at 10 μM; relative to 10 μM S1P; GTP-γ-S SPA, human Edg-1 membranes.
T1 construct: expressed in transfected cells; membrane preparation
T1 sequence (P21453 whole entry): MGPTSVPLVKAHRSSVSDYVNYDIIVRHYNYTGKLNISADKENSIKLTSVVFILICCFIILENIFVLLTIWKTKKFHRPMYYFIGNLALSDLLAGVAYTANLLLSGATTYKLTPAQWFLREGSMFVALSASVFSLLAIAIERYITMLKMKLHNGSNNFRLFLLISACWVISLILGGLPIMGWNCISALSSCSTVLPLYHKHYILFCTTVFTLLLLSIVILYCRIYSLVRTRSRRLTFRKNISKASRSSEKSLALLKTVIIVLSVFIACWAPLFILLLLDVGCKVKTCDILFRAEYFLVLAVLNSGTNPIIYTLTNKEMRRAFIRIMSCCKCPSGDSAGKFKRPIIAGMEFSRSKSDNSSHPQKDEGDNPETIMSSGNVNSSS
Assay type: biochemical
From the text: Determination of the Pharmacological Activity A) GTP-γ-S Assay Using Human Edg-1 Receptors
In order to determine the Edg-1 receptor activation by the compounds of the invention, a GTP-γ-S (guanosine 5′-[γ-thio]triphosphate) assay for G-protein coupled receptor binding based on the scintillation proximity assay principle was used, employing a cell membrane preparation from a CHO Flp-In cell line which constitutively overexpresses the human Edg-1 receptor.
The Flp-In™ expression system (Invitrogen, cat. no. K6010-01) allows the generation of stable mammalian cell lines into which the gene of interest has been integrated through homologous recombination at a specific genomic location called Flp Recombination Target (FRT) site by means of a Flp recombinase encoded by the pOG44 expression plasmid. The integration of the pcDNA5/FRT expression construct into the Flp-In host cell line genome results in the transcription of the gene of interest. The stably transfected cells become hygromycin-resistant.
One day prior to transfection, 200 000 Flp-In-CHO cells were seeded in Ham F-12 medium (Invitrogen, cat. no. 31765) supplemented with 10% fetal calf serum (FCS; Perbio Science, cat. no. SH30068.03) in a 6-well plate and incubated at 37° C./5% CO2 overnight. Using the FuGENE® 6 transfection reagent (Roche, cat. no. 11988387001), cells were cotransfected with the Flp recombinase expression plasmid pOG44 and a modified plasmid additionally containing the edg-1 gene (accession no. NM_001400) termed as pcDNA5-FRT-TO_nFLAG_DEST-EDG-1 with a 9:1 ratio. To obtain the modified pcDNA5-FRT-TO_nFLAG_DEST plasmid, the Invitrogen plasmid pcDNA5/FRT/TO (Invitrogen, cat. no. V6520-20) was adapted to the Gateway® (Invitrogen) cloning system by inserting a Gateway cassette containing attR recombination sites flanking a ccdB gene and a chloramphenicol-resistance gene (Gateway conversion system, Invitrogen, cat. no. 11828-029). In addition a FLAG tag epitope was added before the 5′ att recombination site to allow recombinant expression of N-terminally FLAG-tagged proteins.
For the transfection of one well, 1.08 μg of pOG44 and 0.12 μg of pcDNA5-FRT-TO_nFLAG_DEST-EDG-1 were mixed to 100 μl of serum-free Ham F-12 medium containing 6 μl of FuGENE® 6 transfection reagent. After 20 min of incubation, the transfection reagent/DNA complex was distributed dropwise on the cells. The cells were incubated for 24 h at 37° C. Then the cells from 3 wells each were transferred to a T75 flask (Greiner Cellstar®, cat. no. 658175) containing Ham F-12 medium supplemented with 10% of FCS but without antibiotic and were incubated another 24 h. 48 h after transfection, the medium was replaced by selection medium (Ham F-12 supplemented with 10% of FCS and 300 μg/ml of hygromycin B (Invitrogen, cat. no. 10687-010)). The medium was exchanged every 2 to 3 days until a resistant population of cells had grown. […] After 2 weeks of selection, the cells were transferred into T175 flasks (Greiner Cellstar®, cat. no. 660175) and cultivated for batch production. Cells were harvested from the culture flasks by short treatment (2 to 5 min) with Accutase (PAA, cat. no. L11-007), resuspended in selection medium (see above) and centrifuged at 200×g for 5 min. Cells were resuspended in a mixture of 90% of FCS and 10% of dimethylsulfoxide and stored frozen in liquid nitrogen.
A membrane preparation was obtained by standard methods from the afore-described CHO Flp-In cell line constitutively overexpressing the human Edg-1 receptor. Briefly, the cryopreserved cells were taken in culture and grown until confluency in T175 cell culture flasks (Becton Dickinson, cat. no. 35 5001). […]

Compound | % Activation (Edg-1 receptor activation in percent of the activation by 10 μM S1P) [%]
CCCOc1nc(CN2CCC(F)(F)CC2)nc2oc(-c3c(F)ccc(F)c3F)nc12 [Example 83] | 111
CCCOc1nc(CN2CCOCC2)nc2oc(-c3cc(F)c(F)cc3Cl)nc12 [Example 84] | 108
CCCOc1nc(CN2CCCOCC2)nc2oc(-c3cc(F)c(F)cc3Cl)nc12 [Example 85] | 104
CCCOc1nc(CN2CCCOCC2)nc2oc(-c3c(F)ccc(F)c3F)nc12 [Example 86] | 120
CCCOc1nc(CN2CCC(F)(F)CC2)nc2oc(-c3cc(F)c(F)cc3Cl)nc12 [Example 87] | 92
CCCOc1nc(CN2CCOCC2)nc2oc(-c3ccc(OC)c(F)c3)nc12 [Example 88] | 101
CCCOc1nc(CN2CCOCC2)nc2oc(-c3ccc(Cl)c(F)c3)nc12 [Example 89] | 107
CCCOc1nc(CN2CCC(F)(F)CC2)nc2oc(-c3ccc(Cl)c(F)c3)nc12 [Example 90] | 115
CCCOc1nc(CN2CCCOCC2)nc2oc(-c3ccc(Cl)c(F)c3)nc12 [Example 91] | 96
CCCOc1nc(CN2CCCOCC2)nc2oc(-c3ccc(OC)c(F)c3)nc12 [Example 92] | 106
CCCOc1nc(CN2CCC(F)(F)CC2)nc2oc(-c3ccc(OC)c(F)c3)nc12 [Example 93] | 103
CCCOc1nc(CN2CCC(C(F)(F)F)CC2)nc2oc(-c3cccc(F)c3)nc12 [Example 94] | 82
CCCOc1nc(CN2CCCC2(F)F)nc2oc(-c3cccc(F)c3)nc12 [Example 95] | 105
CCCOc1nc(CN2CCC(F)(F)CC2)nc2oc(-c3ccco3)nc12 [Example 96] | 121
CCCOc1nc(CN2CCCOCC2)nc2oc(-c3ccco3)nc12 [Example 97] | 100
CCCOc1nc(CN2CCC(F)(F)CC2)nc2oc(-c3ccc(Br)o3)nc12 [Example 98] | 120
CCCOc1nc(CN2CCCOCC2)nc2oc(-c3ccc(Br)o3)nc12 [Example 99] | 117
CCCOc1nc(Cc2ccc(Cl)cc2)nc2oc(-c3ccc(C)cc3)nc12 [Example 100] | 88
CCCOc1nc(Cc2ccc(Cl)cc2)nc2oc(-c3cccc(C)c3)nc12 [Example 101] | 91
CCCOc1nc(Cc2ccc(Cl)cc2)nc2oc(-c3ccco3)nc12 [Example 102] | 65
CCCOc1nc(Cc2ccc(Cl)cc2)nc2oc(-c3cccs3)nc12 [Example 103] | 85
Fc1cccc(-c2nc3c(OCC4CC4)nc(Cc4ccc(Cl)cc4)nc3o2)c1 [Example 104] | 87

Compound | % Activation (Edg-1 receptor activation in percent of the activation by 10 μM S1P) [%]
Cc1cccc(-c2nc3c(OCCC(C)C)nc(Cc4ccc(Cl)cc4)nc3o2)c1 [Example 106] | 22
Cc1cccc(-c2nc3c(OC4CCCC4)nc(Cc4ccc(Cl)cc4)nc3o2)c1 [Example 107] | 73
CCCCOc1nc(Cc2ccc(Cl)cc2)nc2oc(-c3cccc(C)c3)nc12 [Example 108] | 31
C#CCOc1nc(Cc2ccc(Cl)cc2)nc2oc(-c3cccc(C)c3)nc12 [Example 109] | 61
Clc1ccc(Cc2nc(OC3CCCC3)c3nc(-c4ccco4)oc3n2)cc1 [Example 110] | 61
CCCCOc1nc(Cc2ccc(Cl)cc2)nc2oc(-c3ccco3)nc12 [Example 111] | 57
Fc1cccc(-c2nc3c(OC4CCCC4)nc(Cc4ccc(Cl)cc4)nc3o2)c1 [Example 112] | 66
Cc1ccc(-c2nc3c(OC4CCCC4)nc(Cc4ccc(Cl)cc4)nc3o2)cc1 [Example 113] | 41
Clc1ccc(Cc2nc(OC3CCCC3)c3nc(-c4cccs4)oc3n2)cc1 [Example 114] | 83
CCCCOc1nc(Cc2ccc(Cl)cc2)nc2oc(-c3cccs3)nc12 [Example 115] | 33
C=CCOc1nc(Cc2ccc(Cl)cc2)nc2oc(-c3cccc(C)c3)nc12 [Example 116] | 136
CCOc1nc(Cc2ccc(Cl)cc2)nc2oc(-c3cccc(C)c3)nc12 [Example 117] | 101
Cc1cccc(-c2nc3c(OCCF)nc(Cc4ccc(Cl)cc4)nc3o2)c1 [Example 118] | 103
C=C(C)COc1nc(Cc2ccc(Cl)cc2)nc2oc(-c3cccc(C)c3)nc12 [Example 119] | 80
Cc1cccc(-c2nc3c(OCCCF)nc(Cc4ccc(Cl)cc4)nc3o2)c1 [Example 120] | 107
C=CCCOc1nc(Cc2ccc(Cl)cc2)nc2oc(-c3cccc(C)c3)nc12 [Example 121] | 99
CCCOc1nc(Cc2ccc(Cl)cc2)nc2oc(-c3cccnc3)nc12 [Example 122] | 103
C#CCOc1nc(Cc2ccc(Cl)cc2)nc2oc(-c3cccnc3)nc12 [Example 123] | 47
C=C(C)COc1nc(Cc2ccc(Cl)cc2)nc2oc(-c3cccnc3)nc12 [Example 124] | 94
FCCCOc1nc(Cc2ccc(Cl)cc2)nc2oc(-c3cccnc3)nc12 [Example 125] | 112
FCCCOc1nc(Cc2ccc(Cl)cc2)nc2oc(-c3cccnc3)nc12 [Example 126] | 105
C=CCOc1nc(Cc2ccc(Cl)cc2)nc2oc(-c3cccnc3)nc12 [Example 127] | 73

Same assay, conditions: example compound at 10 μM; relative to 10 μM S1P; GTP-γ-S SPA, human Edg-1 membranes; read-out: % Activation (Edg-1 receptor activation in percent of the activation by 10 μM S1P)

Compound | activation at 10 µM [%]
Cc1cccc(-c2nc3c(OCC4CC4)nc(Cc4ccc(Cl)cc4)nc3o2)c1 [Example 105, 5-(4-chloro-benzyl)-7-cyclopropylmethoxy-2-(3-methyl-phenyl)-oxazolo[5,4-d]pyrimidine] | 81
